From patent US20250011318A1 (ARCUS BIOSCIENCES, INC., priority 2023, published 2025)

Assays:
Jurkat cells = experiment: IL-2 secretion assay in CD3/CD28-activated Jurkat cells (AlphaLISA); type: cell-based, human; conditions: Homo sapiens, CD3/CD28 T Cell Activator, 24 h, IL-2 AlphaLISA
Summary of the method: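 IL-2 release quantified by AlphaLISA in supernatants after 24 h CD3/CD28 activation at 37° C. Compounds, 10 μM to 300 pM final in 1:2 steps, were added to 50,000 Jurkat cells/well 1 h before activation; 4-parameter fit gave EC50.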

Cbl-b = molecular target: T1, Cbl-b (Homo sapiens, UniProt Q13191); experiment: Cbl-b probe displacement HTRF binding assay; conditions: 0.4 nM biotinylated Cbl-b, 150 nM BODIPY probe
T1 construct: biotin (biotinylated)
T1 sequence (Q13191 whole entry, species assumed): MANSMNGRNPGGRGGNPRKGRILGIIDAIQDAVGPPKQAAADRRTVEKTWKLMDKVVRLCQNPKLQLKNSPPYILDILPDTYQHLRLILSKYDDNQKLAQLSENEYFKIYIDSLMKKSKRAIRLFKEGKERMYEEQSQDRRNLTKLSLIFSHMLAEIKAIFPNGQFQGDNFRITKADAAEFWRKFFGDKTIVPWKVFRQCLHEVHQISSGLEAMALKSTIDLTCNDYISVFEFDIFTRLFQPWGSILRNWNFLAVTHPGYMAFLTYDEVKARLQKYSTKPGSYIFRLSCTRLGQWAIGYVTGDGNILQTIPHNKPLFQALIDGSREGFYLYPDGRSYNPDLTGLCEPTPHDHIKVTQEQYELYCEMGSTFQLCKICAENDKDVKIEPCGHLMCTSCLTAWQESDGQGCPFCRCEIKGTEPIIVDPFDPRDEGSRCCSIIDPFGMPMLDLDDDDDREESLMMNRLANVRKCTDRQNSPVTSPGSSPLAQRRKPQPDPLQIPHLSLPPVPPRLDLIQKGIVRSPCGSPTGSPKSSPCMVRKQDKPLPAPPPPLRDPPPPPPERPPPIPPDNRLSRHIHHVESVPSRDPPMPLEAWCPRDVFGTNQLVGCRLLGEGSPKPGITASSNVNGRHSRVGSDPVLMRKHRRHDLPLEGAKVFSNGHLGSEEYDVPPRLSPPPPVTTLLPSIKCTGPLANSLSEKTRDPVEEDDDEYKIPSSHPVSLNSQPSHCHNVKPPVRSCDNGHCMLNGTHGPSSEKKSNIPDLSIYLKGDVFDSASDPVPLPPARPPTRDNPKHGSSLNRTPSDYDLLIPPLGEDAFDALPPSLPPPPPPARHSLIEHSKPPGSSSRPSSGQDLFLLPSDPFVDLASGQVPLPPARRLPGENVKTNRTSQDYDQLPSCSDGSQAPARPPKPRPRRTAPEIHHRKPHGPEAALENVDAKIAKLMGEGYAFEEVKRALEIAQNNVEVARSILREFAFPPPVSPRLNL
Summary of the method: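 Probe-displacement HTRF in Hepes/NaCl/Triton/TCEP/BSA buffer at room temperature: compound dilutions (to 10 μM) incubated 60 min with 0.4 nM biotin-Cbl-b, 150 nM BODIPY probe added for 15 min, Tb-streptavidin read. Signal normalised to DMSO and no-protein controls; IC50 from four-parameter curve.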

Row | Structure (SMILES) | EC50 (Jurkat cells) [nM] | IC50 (Cbl-b) [nM]
1 | Cn1cnnc1-c1cc(F)ccc1-c1cc(C2CC2)nc(-n2cc(C(F)(F)F)c3nc(CC4CCCCC4)[nH]c3c2=O)c1 [Example 43, 2-(Cyclohexylmethyl)-5-{6-cyclopropyl-4-[4-fluoro-2-(4-methyl-4H-1,2,4-triazol-3-yl)phenyl]-2-pyridyl}-7-(trifluoromethyl)-3,5-dihydro-1,3,5-triaza-4-indenone] | < 100 | < 100
2 | COCCNCc1cc2ncn(-c3cc(-c4ccc(F)cc4-n4nncc4CF)cc(C4CC4)n3)c(=O)c2[nH]1 [Example 138, 3-[6-cyclopropyl-4-[4-fluoro-2-[5-(fluoromethyl)triazol-1-yl]phenyl]pyridin-2-yl]-6-[(2-methoxyethylamino)methyl]-5H-pyrrolo[3,2-d]pyrimidin-4-one] | < 100 | < 100
3 | Cn1cnnc1-c1cc(F)ccc1-c1cc(C2CC2)nc(-n2cc(C#N)c3cc(CC4(O)CCCCC4)[nH]c3c2=O)c1 [Example 96, 6-{6-cyclopropyl-4-[4-fluoro-2-(4-methyl-4H-1,2,4-triazol-3-yl)phenyl]-2-pyridyl}-2-[(1-hydroxycyclohexyl)methyl]-7-oxo-1,6-dihydro-1,6-diaza-4-indenecarbonitrile] | < 100 | < 100
4 | Cc1ccnnc1-c1cc(C#N)ccc1-c1cc(C2CC2)nc(-n2cc(C3CC3)c3cc(CN4CCC[C@H](C)C4)[nH]c3c2=O)c1 [Example 77] | < 100 | < 100
5 | COC1CN(Cc2cc3ncn(-c4cc(-c5ccc(F)cc5-c5nncn5C)cc(C5CC5)n4)c(=O)c3[nH]2)C1 [Example 32, 6-{6-cyclopropyl-4-[4-fluoro-2-(4-methyl-4H-1,2,4-triazol-3-yl)phenyl]-2-pyridyl}-2-[(3-methoxy-1-azetidinyl)methyl]-1,6-dihydro-1,4,6-triaza-7-indenone] | 100 to 1000 | < 100
6 | Cn1cc(C(F)(F)F)nc1-c1cc(C#N)ccc1-c1cc(C2CC2)nc(-n2cc(C3CC3)c3cc(CNC4(C)CCC4)[nH]c3c2=O)c1 [Example 67, 4-(6-cyclopropyl-2-{4-cyclopropyl-2-[(1-methylcyclobutylamino)methyl]-7-oxo-1,6-dihydro-1,6-diaza-6-indenyl}-4-pyridyl)-3-[1-methyl-4-(trifluoromethyl)-2-imidazolyl]benzonitrile] | 100 to 1000 | < 100
7 | COCCNCc1cc2c(C(F)(F)F)cn(-c3cc(-c4ccc(F)cc4-n4cc(C)nn4)cc(C4CC4)n3)c(=O)c2[nH]1 [Example 131, 6-[6-cyclopropyl-4-[4-fluoro-2-(4-methyltriazol-1-yl)phenyl]pyridin-2-yl]-2-[(2-methoxyethylamino)methyl]-4-(trifluoromethyl)-1H-pyrrolo[2,3-c]pyridin-7-one] | < 100 | < 100
8 | Cc1ocnc1-c1cc(C#N)ccc1-c1cc(C2CC2)nc(-n2cc(C3CC3)c3cc(CNC4(C)CCC4)[nH]c3c2=O)c1 [Example 71, 4-(6-cyclopropyl-2-{4-cyclopropyl-2-[(1-methylcyclobutylamino)methyl]-7-oxo-1,6-dihydro-1,6-diaza-6-indenyl}-4-pyridyl)-3-(5-methyl-1,3-oxazol-4-yl)benzonitrile] | < 100 | < 100
9 | Cn1cnnc1-c1cc(F)ccc1-c1cc(C2CC2)nc(-n2cc(C#N)c3cc(C(O)c4cccnc4)[nH]c3c2=O)c1 (stereo not shown) [Example 92, 6-{6-Cyclopropyl-4-[4-fluoro-2-(4-methyl-4H-1,2,4-triazol-3-yl)phenyl]-2-pyridyl}-2-[hydroxy(3-pyridyl)methyl]-7-oxo-1,6-dihydro-1,6-diaza-4-indenecarbonitrile] | < 100 | < 100

The remaining lines, values ahead:

Row | EC50 (Jurkat cells) [nM] | IC50 (Cbl-b) [nM] | Structure (SMILES)
10 | 100 to 1000 | < 100 | C[C@H]1CCCN(Cc2cc3c(C4CC4)cn(-c4cccc(-c5ccc(F)cc5-c5nccn5C)c4)c(=O)c3[nH]2)C1 [Example 17, 4-cyclopropyl-6-[3-[4-fluoro-2-(1-methylimidazol-2-yl)phenyl]phenyl]-2-[[(3S)-3-methylpiperidin-1-yl]methyl]-1H-pyrrolo[2,3-c]pyridin-7-one]
11 | < 100 | < 100 | COc1cc(-c2ccc(F)cc2-c2nccn2C)cc(-n2cc(C3CC3)c3cc(CN4CCC[C@H](C)C4)[nH]c3c2=O)n1 [Example 82, 4-Cyclopropyl-6-[4-[4-fluoro-2-(1-methylimidazol-2-yl)phenyl]-6-methoxypyridin-2-yl]-2-[[(3S)-3-methylpiperidin-1-yl]methyl]-1H-pyrrolo[2,3-c]pyridin-7-one]
12 | < 100 | < 100 | COc1cc(-c2ccc(F)cc2-c2nncn2C)cc(-n2cc(C3CC3)c3cc(CN4CCC[C@H](C)C4)[nH]c3c2=O)n1 [Example 8, 2-{[(S)-3-Methyl-1-piperidyl]methyl}-4-cyclopropyl-6-{4-[4-fluoro-2-(4-methyl-4H-1,2,4-triazol-3-yl)phenyl]-6-methoxy-2-pyridyl}-1,6-dihydro-1,6-diaza-7-indenone]
13 | 100 to 1000 | < 100 | CCn1ccnc1-c1cc(F)ccc1-c1cc(C2CC2)nc(-n2cc(C3CC3)c3cc(CN4CCO[C@H](C)C4)[nH]c3c2=O)c1 [Example 64, 2-{[(R)-2-methyl-4-morpholinyl]methyl}-4-cyclopropyl-6-{6-cyclopropyl-4-[2-(1-ethyl-2-imidazolyl)-4-fluorophenyl]-2-pyridyl}-1,6-dihydro-1,6-diaza-7-indenone]
14 | < 100 | < 100 | C[C@H]1CCCN(Cc2cc3c(C4CC4)cn(-c4cc(-c5ccc(F)cc5-c5nccn5C)cc(C5CC5)n4)c(=O)c3[nH]2)C1 [Example 52, 2-{[(S)-3-methyl-1-piperidyl]methyl}-4-cyclopropyl-6-{6-cyclopropyl-4-[4-fluoro-2-(1-methyl-2-imidazolyl)phenyl]-2-pyridyl}-1,6-dihydro-1,6-diaza-7-indenone]
15 | < 100 | < 100 | Cn1cnnc1-c1cc(F)ccc1-c1cc(C2CC2)nc(-n2cc(C#N)c3cc(C(O)C4CCCC4)[nH]c3c2=O)c1 (stereo not shown) [Example 91, 2-(cyclopentylhydroxymethyl)-6-{6-cyclopropyl-4-[4-fluoro-2-(4-methyl-4H-1,2,4-triazol-3-yl)phenyl]-2-pyridyl}-7-oxo-1,6-dihydro-1,6-diaza-4-indenecarbonitrile]
16 | < 100 | < 100 | CC1(NCc2cc3c(C4CC4)cn(-c4cc(-c5ccc(C#N)cc5-c5nncn5C(F)F)cc(C5CC5)n4)c(=O)c3[nH]2)CCC1 [Example 68, 4-(6-cyclopropyl-2-{4-cyclopropyl-2-[(1-methylcyclobutylamino)methyl]-7-oxo-1,6-dihydro-1,6-diaza-6-indenyl}-4-pyridyl)-3-[4-(difluoromethyl)-4H-1,2,4-triazol-3-yl]benzonitrile]
17 | < 100 | < 100 | O=c1c2[nH]c(CN[C@H]3CCC[C@H]3O)cc2c(C2CC2)cn1-c1cc(F)cc(-c2ccc(F)cc2-c2nncn2C(F)F)c1 [Example 70, 2-{[(1S,2R)-2-hydroxycyclopentylamino]methyl}-4-cyclopropyl-6-{2′-[4-(difluoromethyl)-4H-1,2,4-triazol-3-yl]-4′,5-difluoro-3-biphenylyl}-1,6-dihydro-1,6-diaza-7-indenone]
